Assay results from paper PMC8147781, “Discovery of Pyrrolidine-2,3-diones as Novel Inhibitors of P. aeruginosa PBP3” (Antibiotics, 2021).
Converted amounts (≈) assume the structure as drawn. Where two headings read alike, the source gives them in different places.

Assays:
S. aureus 133 = test: MIC broth microdilution, S. aureus; assay type: cell-based; details: Staphylococcus aureus, 133; Table S3
Procedure: (§1) MIC determination was performed via standard broth microdilution according to the Clinical & Laboratory Standards institute guidelines. Overnight colonies grown on BD-Columbia agar with 5% Sheep Blood (Becton Dickinson, Franklin Lakes, NJ, USA), were diluted in Mueller Hinton Broth 2 cation adjusted (MH+) medium (Thermo Fisher Scientific) to a concentration of 5 × 10^5 CFU/mL. Serial dilutions (1:2) of test compounds were incubated at 37 °C with 5 × 10^4 bacteria in a final volume of 100 μL. Sterile and growth controls in the presence of 1% DMSO and PMBN if the case, and the positive controls, aztreonam (AZT) and tigecycline (TIG) were included in the experiments (Table S4). The MICs were determined visually after 18 h at 37 °C and confirmed by the addition of 10% PrestoBlue (ThermoFisher Scientific) reagent according to the manufacture’s protocol. The fluorescence signal of PrestoBlue reagent was measured at Ex/Em: 550/595 nm after 30 min incubation at 37 °C using at a ClarioStar microplate reader (BMG Labtech). PrestoBlue reduction occurs in the presence of living cells and consequently turns red in colour and is highly fluorescent.

[1] = tested on: NRK-52E, epithelial kidney cell line; test: Cytotoxicity assay (PrestoBlue), NRK52E; details: CC50, 72 h
Procedure: (§2) We finally tested the cytotoxicity of the compounds against four eukaryotic cell lines (Table 2 and Table S5), NRK-52E, an epithelial kidney cell line of Rattus norvegicus; Hep G2, an human epithelial liver cell line; and two suspension cell lines: CCRF-CEM, a T lymphoblast; and H9, a cutaneous T lymphocyte cell line.
(§3) Cell lines stored at −120 °C were thawed to 37 °C and resuspended in 10 mL of medium pre-warmed to 37 °C. Cells were pelleted at 300× g for 10 min, and then resuspended in fresh medium, seeded in a T-75 culture flask, and placed in a CO2 incubator (37 °C with 5% CO2 tension). Once the cells reached approximately 70–80% confluency, they were then passaged regularly. The adherent cell lines NRK52E, HepG2 and Huh 7 were washed once with 10 mL DPBS and detached with Trypsin-EDTA for 5 to 7 min and resuspended in 15 mL of the appropriate medium. The suspension cell line CCRF-CEM were diluted and resuspended in fresh RPMI 1640 PAN medium. To calculate the cell density, the cell resuspensions were diluted 1:6 with DPBS. Equal volumes of cell suspension and Trypan Blue were mixed and gently loaded into a haemocytometer (INCYTO, 31056 Republic of Korea). In each experiment, cell concentrations were adjusted to reach a concentration of 2.5 × 10^3 cell/well for NRK52E, 5 × 10^3 cell/well for HepG2, 6.2 × 10^4 cell/well for CCRF-CEM and 3 × 10^3 for H9. The cells were incubated with decreasing concentration of compounds (1 µL in 96% DMSO) for 72 h at 37 °C with 5% CO2 tension. Cycloheximide, a cytotoxic compound that interferes with the translocation step in eukaryotic protein synthesis was used as a control for the experiments. The assay was carried out in flat-bottom, transparent 96-well plates. Cell viability was determined using the PrestoBlue reagent (Thermo Fisher Scientific, Waltham, MA, USA) according to the manufacture’s protocol. First, 10× PrestoBlue was added to each well to obtain a 1× solution, and incubated at 37 °C for 45 min. Then, fluorescence was measured at Ex/Em: 550/595 nm using a ClarioStar microplate reader (BMG Labtech). Cytotoxicity was determined as the percentage of the difference in absorbance of the untreated sample to the treated sample. CC50 was calculated using the values obtained in each concentration using the sigmoidal dose-response by Prism v.8. The media used in each cell line is detailed in Table S6.

A. baumannii ATCC15308 = test: MIC broth microdilution, A. baumannii; assay type: cell-based; details: 10 µg/mL PMBN
Procedure: as §1

[2] = target: T1, PBP3 of P. aeruginosa (PaPBP3) (Pseudomonas aeruginosa, UniProt G3XD46); test: S2dfluo fluorescence transpeptidase assay; assay type: biochemical; details: 300 nM PaPBP3, 30 min preincubation, 37 °C; for IC50: read-out: IC50 Determination with PaPBP3, S2dfluo Assay
T1 construct: P. aeruginosa PBP3 (amino acids 40 to 563); His-tag; made in house; host or cells: E. coli BL21 (DE3) Rosetta, plasmid pET41_PBP-3
T1 sequence (G3XD46 40-563): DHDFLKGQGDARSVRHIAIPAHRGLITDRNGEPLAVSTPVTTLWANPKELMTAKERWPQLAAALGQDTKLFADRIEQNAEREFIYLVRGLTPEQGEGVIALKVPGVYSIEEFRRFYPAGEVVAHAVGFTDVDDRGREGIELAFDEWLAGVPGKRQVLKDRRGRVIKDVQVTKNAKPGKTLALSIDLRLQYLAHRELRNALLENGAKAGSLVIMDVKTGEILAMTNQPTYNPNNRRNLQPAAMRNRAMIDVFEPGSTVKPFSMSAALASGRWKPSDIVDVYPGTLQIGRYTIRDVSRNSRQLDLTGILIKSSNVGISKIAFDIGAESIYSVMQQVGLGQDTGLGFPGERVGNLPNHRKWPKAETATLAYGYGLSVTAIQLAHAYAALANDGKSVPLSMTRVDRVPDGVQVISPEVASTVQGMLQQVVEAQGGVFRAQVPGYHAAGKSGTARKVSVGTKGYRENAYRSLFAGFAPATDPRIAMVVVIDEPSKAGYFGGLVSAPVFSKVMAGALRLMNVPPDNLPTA
Procedure: The assays were carried out in the presence of 5% DMSO and 0.01% Triton X100 to avoid the formation of colloidal structures and adsorption of protein and/or compounds to surfaces. The Z’-factor determined for the assay was 0.73 ± 0.28, indicating the suitability and robustness of the assay for high throughput screening (HTS) (Figure 1B,C).
The activity of soluble ^PaPBP3 (300 nM) was measured in the presence of 0.8 mM S2d, 1 mM D-alanine and 0.5 mM mBBr for 25 min by monitoring the increase in the fluorescence intensity of mBBr at Ex/Em: 394/490 nm using an Infinite M1000 microplate reader (Tecan, Männedorf, Switzerland). To test the effect of inhibitors, 100 µM or 0.8 to 100 µM of compounds diluted in 96% DMSO were incubated for 30 min and 450 rpm with 300 nM soluble PBP3. The incubation period was set to improve the binding of non-covalent inhibitors and 0.01% Triton X100 (Sigma-Aldrich, Taufkirchen, Germany) was added to prevent aggregation of compounds. The enzyme reaction was started by adding a substrate mix of 0.8 mM S2d and […]. The enzyme, compound and substrate mix were mixed 1:1, pipetted with a Liquidator 96 (Melter Toledo, Gießen, Germany) and the fluorescence intensity was directly monitored with an Infinite M1000 microplate reader (Tecan) at Ex/Em: 394/490 nm. The assay was performed in black, flat-bottom 96-well microplates (Greiner Bio-One, Kremsmünster, Austria) at 37 °C in Sorensen Phosphate Buffer (57 mM Na2HPO4 and 10 mM KH2PO4, pH 7.5 + 0.01% Triton X-100). The velocity of the PBP3 reaction was calculated in the presence of each concentration of compound and the velocity values were used to estimate IC50 by sigmoidal nonlinear regression, using Prism v.9 software (San Diego, CA, USA) and the velocity of the reaction at each concentration.

[3] = tested on: K. pneumoniae clinical isolate; test: MIC broth microdilution, K. pneumoniae; assay type: cell-based; details: Klebsiella pneumoniae; Table S3
Procedure: as §1

[4] = tested on: T-lymphoblast CCRF-CEM cell line; test: Cytotoxicity assay (PrestoBlue), CCRF-CEM; details: for Cytotoxicity CCRF-CEM: CC50, 72 h; for cytotoxic potential at the tested cell lines: four cell lines: NRK-52E, Hep G2, CCRF-CEM, H9
Procedure: as §2, §3

[5] = tested on: H9, cutaneous T lymphocyte cell line; test: Cytotoxicity assay (PrestoBlue), H9; details: CC50, 72 h
Procedure: as §2, §3

S. pneumoniae = test: MIC broth microdilution, S. pneumoniae; assay type: cell-based; details: Streptococcus pneumoniae, read-out: MIC (µM) S. pneumoniae
Procedure: as §1

Structure (SMILES) | MIC (S. aureus 133) [µM] | Cytotoxicity effect (µM) Epithelial kidney NRK52E [1] [µM] | MIC (µM) A. baumanii ATCC15308 (A. baumannii ATCC15308) [µM] | IC50 [2] [µM] | MIC [3] [µM] | Cytotoxicity CCRF-CEM [4] [µM] | Cytotoxicity effect (µM) T-lymphocyte H9 [5] [µM] | MIC (S. pneumoniae; Table S3) [µM] | IC50 Determination with PaPBP3, S2dfluo Assay [2] | MIC (S. pneumoniae) [µM] | cytotoxic potential at the tested cell lines [4]
O=C(C1=C(O)C(=O)N(Cc2cccc(F)c2)C1c1ccc(Cl)cc1)c1ccc(Br)cc1 (stereo not shown) [Compound 1] | > 100 | > 100 | > 100 | 28 ± 9 | > 100 | >100 | > 100 | 25 (≈ 12.5 µg/mL) | – | – | –
CCNC1=C(C(=O)c2ccc(Br)cc2)C(c2ccc(Cl)cc2)N(Cc2cccc(F)c2)C1=O (stereo not shown) [Compound 43, 4-(4-bromobenzoyl)-5-(4-chlorophenyl)-3-(ethylamino)-1-[(3-fluorophenyl)methyl]-5H-pyrrol-2-one] | > 100 | 73 ± 9.2 | > 100 | > 100 | – | > 100 | > 100 | > 100 | – | – | –
O=C(C1=C(O)C(=O)N(Cc2cscn2)C1c1ccc(Cl)cc1)c1ccc(Br)cc1 (stereo not shown) [Compound 42] | > 100 | > 100 | > 100 | > 100 | > 100 | >100 | > 100 | > 100 | abolished the inhibitory activity | – | –
O=C(C1=C(O)C(=O)N(CCc2c[nH]c3ccccc23)C1c1ccc(Cl)cc1)c1ccc(Br)cc1 (stereo not shown) [Compound 40] | > 100 | > 100 | > 100 | 8 ± 4 | > 100 | 93 ± 4 | > 100 | 12.5 (≈ 6.7 µg/mL) | – | – | –
O=C(C1=C(O)C(=O)N(Cc2cc3cc(Cl)ccc3[nH]2)C1c1ccc(Cl)cc1)c1ccc(Br)cc1 (stereo not shown) [Compound 35] | 3.13 (≈ 1.74 µg/mL) | 53 ± 5 | > 100 | 3 ± 1 | > 100 | > 100 | 96 ± 7 | 6.25 (≈ 3.48 µg/mL) | – | – | –
O=C(C1=C(O)C(=O)N(Cc2cc3ccccc3[nH]2)C1c1ccc(Cl)cc1)c1ccc(Br)cc1 (stereo not shown) [Compound 34, 4-(4-bromobenzoyl)-5-(4-chlorophenyl)-3-hydroxy-1-(1H-indol-2-ylmethyl)-5H-pyrrol-2-one] | 6.25 (≈ 3.26 µg/mL) | > 100 | > 100 | 14 ± 9 | > 100 | >100 | > 100 | – | – | 12.5 (≈ 6.52 µg/mL) | –
O=C(C1=C(O)C(=O)N(CCc2cc3ccccc3[nH]2)C1c1ccc(Cl)cc1)c1ccc(Br)cc1 (stereo not shown) [Compound 37] | 6.25 (≈ 3.35 µg/mL) | 9 ± 12 | > 100 | 16 ± 8 | > 100 | 8 ± 6 | 19 ± 6 | 50 (≈ 26.8 µg/mL) | – | – | high cytotoxic potential
CCN1C(=O)C(O)=C(C(=O)c2ccc(Br)cc2)C1c1ccc(Cl)cc1 (stereo not shown) [Compound 33] | > 100 | 84 ± 5 | > 100 | > 100 | > 100 | 58 ± 6 | > 100 | 50 (≈ 21 µg/mL) | loss of the inhibitory effect | – | –
O=C1NC(c2ccc(Cl)cc2)C(C(=O)c2ccc(Br)cc2)=C1O (stereo not shown) [Compound 32, 4-(4-bromobenzoyl)-5-(4-chlorophenyl)-3-hydroxy-1,5-dihydropyrrol-2-one] | > 100 | 98 ± 5 | > 100 | > 100 | > 100 | 94 ± 6 | > 100 | > 100 | loss of the inhibitory effect | – | –
O=C(C1=C(O)C(=O)N(Cc2cc3cnccc3[nH]2)C1c1ccc(Cl)cc1)c1ccc(Br)cc1 (stereo not shown) [Compound 36] | > 100 | 58 ± 3 | > 100 | > 100 | > 100 | – | 48 ± 2 | > 100 | – | – | high cytotoxic potential
CCNC1=C(C(=O)c2ccc(Br)cc2)C(c2ccc(Cl)cc2)N(Cc2c[nH]c3ccccc23)C1=O (stereo not shown) [Compound 45] | 6.25 (≈ 3.43 µg/mL) | 23 ± 11 | > 100 | > 100 | > 100 | – | 32 ± 10 | 25 (≈ 13.7 µg/mL) | – | – | high cytotoxic potential
O=C(C1=C(O)C(=O)N(Cc2ccco2)C1c1ccc(Cl)cc1)c1ccc(Br)cc1 (stereo not shown) [Compound 41, 4-(4-bromobenzoyl)-5-(4-chlorophenyl)-1-(furan-2-ylmethyl)-3-hydroxy-5H-pyrrol-2-one] | > 100 | > 100 | > 100 | > 100 | > 100 | >100 | > 100 | 50 (≈ 23.6 µg/mL) | abolished the inhibitory activity | – | –
